Test system: NRAS mutant melanoma cells
Test: Telomere dysfunction-induced foci (TIF) assay, IF-FISH
Type: cell-based, Human
Settings: 6-thio-dG for 7 days
Description: NRAS mutant melanoma cells WM3000 were transduced with TERT shRNA and treated with NAC (mM) for 7 days. […] Representative images are shown. (scale bar=10 μm). Quantification of TIF positive cells is plotted in FIG. 13b. Cells were scored as TIF positive when three or more g-H2AX foci (green) were co-localizing with telomere foci (red). Data represent average of thirteen fields imaged +/−SD.
NRAS^mut melanoma cells were treated with 6-thio-dG for 6, 12 or 18 days. As presented in FIG. 15a, relative cell number was assessed by Crystal Violet assay and calculated relative to DMSO-treated cells. Data represent average of three independent experiments +/−SD. […] NRAS^mut cells were treated with 6-thio-dG for 7 days and telomere induced foci (TIF) was determined by indirect immunofluorescence combined with fluorescence in situ hybridization (FISH) (FIG. 15c). […] Quantification of TIF assay is plotted in FIG. 15d. Cells were scored as TIF positive when four or more γ-H2AX foci (green, center row of FIG. 15c labelled as γH2AX) were co-localizing with telomere foci (red, top row of FIG. 15c labelled as Telomeres). […] P values were calculated by unpaired Student's t-test.
For TIF analysis, indirect immunofluorescence (IF) combined with fluorescence in situ hybridization (FISH) was performed as previously described with some modifications. […] TIF were quantified from at least three independent experiments.

SMILES: Nc1nc2c(ncn2[C@H]2C[C@H](O)[C@@H](CO)O2)c(=S)[nH]1 [6-thio-dG, 6-thio-2′-deoxyguanosine]
- TIFs: increased levels

Reference: US20190282600A1, “COMBINATION THERAPIES TARGETING TERT DEPENDENCY FOR CANCER THERAPY” (The Wistar Institute of Anatomy and Biology, priority 2018, published 2019)
